Laboratory results as given in US7700577B2, “Carbohydrate based anti-bacterials” (Alchemia Limited, priority 2002, dated 2010).

Columns and labels:
[1] = tested on: S. aureus; assay: MIC testing, broth microdilution (NCCLS), S. aureus; type: cell-based, Staphylococcus aureus; settings: for SA24 (MIC): S. aureus after 24 hours exposure; for SA48 (MIC): S. aureus after 48 hours exposure
Excerpt: (§1) The broth microdilution format of the National Committee for Clinical Laboratory Standards (NCCLS) approved standard for susceptibility tests as outlined in M7-A4 “methods for dillution Antimicrobial susceptibility tests for bacteria that grow aerobically; approved standard—fifth edition”, January 2000 was utilized for minimum inhibitory concentration testing in Mueller-Hinton broth. The broth for Streptococcus pyogenes testing was supplemented with 2% laked horse blood. A positive result in initial testing was determined by complete inhibition of macroscopic bacterial growth at a concentration of 128 micrograms per mL after incubation for 16 to 24 hours at 37 degrees C. In the case of Micrococcus luteus, incubation was at 30 degrees C. […] Bacterial Types Are: • SA24 S. aureus after 24 hours exposure • SA48 S. aureus after 48 hours exposure • EC24 E. coli after 24 hours exposure

[2] = tested on: E. coli; assay: MIC testing, broth microdilution (NCCLS), E. coli; type: cell-based; settings: E. coli after 24 hours exposure
Excerpt: as §1

## O=C(Nc1cccc(C(F)(F)F)c1)NC1C(OC2C(NC(=O)OCc3ccccc3)COC(CO)C2NC(=O)c2ccc(-c3ccccc3)cc2)OC(CO)C(O)C1O (stereo not shown) [compound 8]
[1]
  SA24 (MIC): + (+ indicates an MIC value of less than 128 micrograms per mL)
  SA48 (MIC): + (+ indicates an MIC value of less than 128 micrograms per mL)
[2]
  EC24 (MIC): − (− indicates an MIC of greater then 128 micrograms per mL)

## O=C(Nc1cccc(C(F)(F)F)c1)NC1C(OC2C(NC(=O)c3cccc(C(F)(F)F)c3)COC(CO)C2NC(=O)c2ccc(-c3ccccc3)cc2)OC(CO)C(O)C1O (stereo not shown) [compound 5]
[1]
  SA24 (MIC): + (+ indicates an MIC value of less than 128 micrograms per mL)
  SA48 (MIC): + (+ indicates an MIC value of less than 128 micrograms per mL)
[2]
  EC24 (MIC): − (− indicates an MIC of greater then 128 micrograms per mL)

## O=C(Cc1ccc(C(F)(F)F)cc1)NC1COC(CO)C(NC(=O)c2ccc(-c3ccccc3)cc2)C1OC1OC(CO)C(O)C(O)C1NC(=O)Nc1cccc(C(F)(F)F)c1 (stereo not shown) [compound 7]
[1]
  SA24 (MIC): + (+ indicates an MIC value of less than 128 micrograms per mL)
  SA48 (MIC): + (+ indicates an MIC value of less than 128 micrograms per mL)
[2]
  EC24 (MIC): − (− indicates an MIC of greater then 128 micrograms per mL)

## Cc1ccc(NC(=N)NC2[C@H](O[C@@H]3C(NC(=O)Nc4cccc(C(F)(F)F)c4)COC(CO)[C@@H]3NC(=O)c3ccc(-c4ccccc4)cc3)OC(CO)[C@@H](O)[C@@H]2O)cc1 (stereo partly shown) [compound 46]
[1]
  SA48 (MIC): + (+ indicates an MIC value of less than 128 micrograms per mL)
[2]
  EC24 (MIC): − (− indicates an MIC of greater then 128 micrograms per mL)

## Cc1ccc(S(=O)(=O)NC2COC(CO)[C@H](NC(=O)c3ccc(-c4ccccc4)cc3)[C@@H]2O[C@@H]2OC(CO)[C@@H](O)[C@H](O)C2NC(=O)Nc2cccc(C(F)(F)F)c2)cc1 (stereo partly shown) [compound 39]
[1]
  SA24 (MIC): + (+ indicates an MIC value of less than 128 micrograms per mL)
  SA48 (MIC): + (+ indicates an MIC value of less than 128 micrograms per mL)
[2]
  EC24 (MIC): − (− indicates an MIC of greater then 128 micrograms per mL)

## O=C(Nc1cccc(C(F)(F)F)c1)NC1COC(CO)[C@H](NC(=O)c2ccc(-c3ccccc3)cc2)[C@@H]1O[C@@H]1OC(CO)[C@@H](O)[C@H](O)C1NS(=O)(=O)c1cccc(C(F)(F)F)c1 (stereo partly shown) [compound 48]
[1]
  SA24 (MIC): + (+ indicates an MIC value of less than 128 micrograms per mL)
  SA48 (MIC): + (+ indicates an MIC value of less than 128 micrograms per mL)
[2]
  EC24 (MIC): − (− indicates an MIC of greater then 128 micrograms per mL)

## N=C(Nc1cccc(C(F)(F)F)c1)NC1[C@H](O[C@@H]2C(NC(=N)Nc3cccc(C(F)(F)F)c3)COC(CO)[C@@H]2NC(=O)c2ccc(-c3ccccc3)cc2)OC(CO)[C@@H](O)[C@@H]1O (stereo partly shown) [compound 16]
[1]
  SA24 (MIC): + (+ indicates an MIC value of less than 128 micrograms per mL)
  SA48 (MIC): + (+ indicates an MIC value of less than 128 micrograms per mL)
[2]
  EC24 (MIC): + (+ indicates an MIC value of less than 128 micrograms per mL)

## N=C(Nc1cccc(C(F)(F)F)c1)NC1[C@H](O[C@@H]2C(NC(=N)Nc3cccc(C(F)(F)F)c3)COC(CO)[C@@H]2NC(=O)C(N)c2ccc(-c3ccccc3)cc2)OC(CO)[C@@H](O)[C@@H]1O (stereo partly shown) [compound 25]
[1]
  SA24 (MIC): + (+ indicates an MIC value of less than 128 micrograms per mL)
  SA48 (MIC): + (+ indicates an MIC value of less than 128 micrograms per mL)
[2]
  EC24 (MIC): + (+ indicates an MIC value of less than 128 micrograms per mL)

## Cc1ccc(S(=O)(=O)NC2[C@H](O[C@@H]3C(NC(=O)Nc4cccc(C(F)(F)F)c4)COC(CO)[C@@H]3NC(=O)c3ccc(-c4ccccc4)cc3)OC(CO)[C@@H](O)[C@@H]2O)cc1 (stereo partly shown) [compound 49]
[1]
  SA48 (MIC): + (+ indicates an MIC value of less than 128 micrograms per mL)
[2]
  EC24 (MIC): − (− indicates an MIC of greater then 128 micrograms per mL)

## O=C(Cc1cccc(C(F)(F)F)c1)NC1COC(CO)C(NC(=O)c2ccc(-c3ccccc3)cc2)C1OC1OC(CO)C(O)C(O)C1NC(=O)Cc1cccc(C(F)(F)F)c1 (stereo not shown) [compound 2]
[1]
  SA24 (MIC): + (+ indicates an MIC value of less than 128 micrograms per mL)
  SA48 (MIC): + (+ indicates an MIC value of less than 128 micrograms per mL)
[2]
  EC24 (MIC): − (− indicates an MIC of greater then 128 micrograms per mL)

## N=C(Nc1cccc(C(F)(F)F)c1)NC1[C@H](O[C@@H]2C(NC(=N)Nc3cccc(C(F)(F)F)c3)COC(CO)[C@@H]2NCc2ccc(-c3ccccc3)cc2)OC(CO)[C@@H](O)[C@@H]1O (stereo partly shown) [compound 20]
[1]
  SA24 (MIC): + (+ indicates an MIC value of less than 128 micrograms per mL)
  SA48 (MIC): + (+ indicates an MIC value of less than 128 micrograms per mL)
[2]
  EC24 (MIC): + (+ indicates an MIC value of less than 128 micrograms per mL)

## Cc1ccc(S(=O)(=O)NC2C(OC3C(NC(=N)Nc4cccc(C(F)(F)F)c4)COC(CO)C3NC(=O)c3ccc(-c4ccccc4)cc3)OC(CO)C(O)C2O)cc1 (stereo not shown) [compound 12]
[1]
  SA24 (MIC): + (+ indicates an MIC value of less than 128 micrograms per mL)
  SA48 (MIC): + (+ indicates an MIC value of less than 128 micrograms per mL)
[2]
  EC24 (MIC): + (+ indicates an MIC value of less than 128 micrograms per mL)

## O=C(Nc1cccc(C(F)(F)F)c1)NC1[C@H](O[C@@H]2C(NS(=O)(=O)c3cccc(C(F)(F)F)c3)COC(CO)[C@@H]2NC(=O)c2ccc(-c3ccccc3)cc2)OC(CO)[C@@H](O)[C@@H]1O (stereo partly shown) [compound 37]
[1]
  SA24 (MIC): + (+ indicates an MIC value of less than 128 micrograms per mL)
  SA48 (MIC): + (+ indicates an MIC value of less than 128 micrograms per mL)
[2]
  EC24 (MIC): − (− indicates an MIC of greater then 128 micrograms per mL)

## N=C(Nc1cccc(C(F)(F)F)c1)NC1[C@H](O[C@@H]2C(NC(=N)Nc3cccc(C(F)(F)F)c3)COC(CO)[C@@H]2NC(=O)C(N)Cc2ccc(-c3ccccc3)cc2)OC(CO)[C@@H](O)[C@@H]1O (stereo partly shown) [compound 26]
[1]
  SA24 (MIC): + (+ indicates an MIC value of less than 128 micrograms per mL)
  SA48 (MIC): + (+ indicates an MIC value of less than 128 micrograms per mL)
[2]
  EC24 (MIC): + (+ indicates an MIC value of less than 128 micrograms per mL)

## CC(C)=CCCC(C)=CCCC(C)=CCN[C@H]1C(CO)OCC(NC(=N)Nc2cccc(C(F)(F)F)c2)[C@H]1O[C@@H]1OC(CO)[C@@H](O)[C@H](O)C1NC(=N)Nc1cccc(C(F)(F)F)c1 (stereo partly shown) [compound 24]
[1]
  SA24 (MIC): + (+ indicates an MIC value of less than 128 micrograms per mL)
  SA48 (MIC): + (+ indicates an MIC value of less than 128 micrograms per mL)
[2]
  EC24 (MIC): + (+ indicates an MIC value of less than 128 micrograms per mL)

## N=C(Nc1cccc(C(F)(F)F)c1)NC1[C@H](O[C@@H]2C(NC(=N)Nc3cccc(C(F)(F)F)c3)COC(CO)[C@@H]2NC(=N)Nc2ccc(-c3ccccc3)cc2)OC(CO)[C@@H](O)[C@@H]1O (stereo partly shown) [compound 21]
[1]
  SA24 (MIC): + (+ indicates an MIC value of less than 128 micrograms per mL)
  SA48 (MIC): + (+ indicates an MIC value of less than 128 micrograms per mL)
[2]
  EC24 (MIC): + (+ indicates an MIC value of less than 128 micrograms per mL)

## CCCCCC(C)CCC(=O)N[C@H]1C(CO)OCC(NC(=N)Nc2cccc(C(F)(F)F)c2)[C@H]1O[C@@H]1OC(CO)[C@@H](O)[C@H](O)C1NC(=N)Nc1cccc(C(F)(F)F)c1 (stereo partly shown) [compound 19]
[1]
  SA24 (MIC): + (+ indicates an MIC value of less than 128 micrograms per mL)
  SA48 (MIC): + (+ indicates an MIC value of less than 128 micrograms per mL)
[2]
  EC24 (MIC): + (+ indicates an MIC value of less than 128 micrograms per mL)
